Data on seven compounds can be found in US12723063B2, “GIPR-agonist compounds” (Eli Lilly and Company, priority 2019, dated 2026).

For orientation: pKi means the Ki on a negative log10 scale, so that one unit is a factor of ten.

Each structure is given as a SMILES string. pKi: −log10 of the molar value. *1 amine or outer side, *2 acyl side, *3 side chain or, on linkers, in order; H or OH if unused. Where a SMILES comes first, the peptide text is derived from it. Side-chain parts run from the residue outwards. [ ]: non-standard residue; d: D form. The star is where a group is joined. C20 diacid = O=C(O)CCCCCCCCCCCCCCCCCCC(=O)*; γGlu = O=C(O)[C@H](CCC(=O)[*:2])N[*:1]; αMeF = C[C@](N)(Cc1ccccc1)C(=O)O; 4Pal = N[C@@H](Cc1ccncc1)C(=O)O; αMeL = CC(C)C[C@](C)(N)C(=O)O; AEEA = NCCOCCOCC(=O)O; Aib = CC(C)(N)C(=O)O

For the test, the target named is T1, human GLP-1R (Homo sapiens, UniProt P43220).
T1 construct: expressed in transfected cells; crude membranes
T1 sequence (P43220 24-463): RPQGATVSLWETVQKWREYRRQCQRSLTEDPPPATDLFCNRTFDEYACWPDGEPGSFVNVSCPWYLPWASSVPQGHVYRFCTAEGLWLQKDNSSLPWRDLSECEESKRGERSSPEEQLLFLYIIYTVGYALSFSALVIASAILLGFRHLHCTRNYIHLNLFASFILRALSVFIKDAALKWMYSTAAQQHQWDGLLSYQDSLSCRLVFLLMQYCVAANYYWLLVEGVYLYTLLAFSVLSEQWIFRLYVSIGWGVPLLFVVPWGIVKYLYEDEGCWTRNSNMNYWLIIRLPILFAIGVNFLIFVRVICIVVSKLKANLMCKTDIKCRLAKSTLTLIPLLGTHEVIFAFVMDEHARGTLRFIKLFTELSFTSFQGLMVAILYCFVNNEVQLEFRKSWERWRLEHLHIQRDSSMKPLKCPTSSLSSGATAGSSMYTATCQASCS
As to the kind of experiment: [125I]-GLP-1 binding, SPA with WGA beads, 0.1% bacitracin. The conditions noted are these: geometric mean, read-out: hGLP1R Ki. In a few lines:
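Binding buffer was 25 mM HEPES pH 7.4 with 2.5 mM CaCl2, 1 mM MgCl2, 0.1% (w/v) bacitracin, 0.003% Tween-20 and EDTA-free protease inhibitors. Four-parameter regression gave IC50, converted to Ki (geometric mean, SEM, n independent days).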
Consider `CC[C@H](C)[C@H](NC(=O)[C@H](Cc1ccccc1)NC(=O)[C@@H](NC(=O)CNC(=O)[C@H](CCC(=O)O)NC(=O)C(C)(C)NC(=O)[C@@H](N)Cc1ccc(O)cc1)[C@@H](C)O)C(=O)N[C@@H](CO)C(=O)N[C@@H](CC(=O)O)C(=O)N[C@@H](Cc1ccc(O)cc1)C(=O)N[C@@H](CO)C(=O)N[C@H](C(=O)N[C@@](C)(CC(C)C)C(=O)N[C@@H](CC(C)C)C(=O)N[C@@H](CC(=O)O)C(=O)N[C@@H](CCCCN)C(=O)N[C@@H](CCCCNC(=O)COCCOCCNC(=O)COCCOCCNC(=O)CC[C@H](NC(=O)CCCCCCCCCCCCCCCCCCC(=O)O)C(=O)O)C(=O)N[C@@H](Cc1c[nH]cn1)C(=O)N[C@@H](CCC(N)=O)C(=O)NC(C)(C)C(=O)N[C@@H](CC(=O)O)C(=O)N[C@@H](Cc1ccccc1)C(=O)N[C@H](C(=O)N[C@@H](CCC(=O)O)C(=O)N[C@@H](Cc1ccncc1)C(=O)N[C@@H](CC(C)C)C(=O)N[C@@H](CC(C)C)C(=O)N[C@@H](CCC(=O)O)C(=O)N[C@@H](CCC(N)=O)C(=O)NCC(=O)N1CCC[C@H]1C(=O)N[C@@H](CO)C(=O)N[C@@H](CO)C(=O)NCC(=O)N[C@@H](C)C(=O)N1CCC[C@H]1C(=O)N1CCC[C@H]1C(=O)N1CCC[C@H]1C(=O)N[C@@H](CO)C(N)=O)C(C)C)[C@@H](C)CC` [Example 46] (H-Y[Aib]EGTFISDYSI[αMeL]LDKK([AEEA-AEEA-γGlu-C20 diacid])HQ[Aib]DFVE[4Pal]LLEQGPSSGAPPPS-NH2), for which the negative-log Ki (pKi) is 6.13.
In the case of `CC[C@H](C)[C@H](NC(=O)[C@H](CO)NC(=O)[C@H](Cc1ccc(O)cc1)NC(=O)[C@H](CC(=O)O)NC(=O)[C@H](CO)NC(=O)[C@@H](NC(=O)[C@](C)(CC(C)C)NC(=O)[C@@H](NC(=O)CNC(=O)[C@H](CCC(=O)O)NC(=O)C(C)(C)NC(=O)[C@@H](N)Cc1ccc(O)cc1)[C@@H](C)O)[C@@H](C)CC)C(=O)N[C@@H](C)C(=O)N[C@@H](CC(C)C)C(=O)N[C@@H](CC(=O)O)C(=O)N[C@@H](CCCCN)C(=O)N[C@@H](CCCCNC(=O)COCCOCCNC(=O)COCCOCCNC(=O)CC[C@H](NC(=O)CCCCCCCCCCCCCCCCCCC(=O)O)C(=O)O)C(=O)N[C@@H](Cc1c[nH]cn1)C(=O)N[C@@H](CCC(N)=O)C(=O)NC(C)(C)C(=O)N[C@@H](CCC(=O)O)C(=O)N[C@@H](Cc1ccccc1)C(=O)N[C@H](C(=O)N[C@@H](CC(N)=O)C(=O)N[C@@H](Cc1ccc(O)cc1)C(=O)N[C@@H](CC(C)C)C(=O)N[C@@H](CC(C)C)C(=O)N[C@@H](C)C(=O)N[C@H](C(=O)NCC(=O)N1CCC[C@H]1C(=O)N[C@@H](CO)C(=O)N[C@@H](CO)C(=O)NCC(=O)N[C@@H](C)C(=O)N1CCC[C@H]1C(=O)N1CCC[C@H]1C(=O)N1CCC[C@H]1C(=O)N[C@@H](CO)C(N)=O)[C@@H](C)O)C(C)C` [Example 35] (H-Y[Aib]EGT[αMeL]ISDYSIALDKK([AEEA-AEEA-γGlu-C20 diacid])HQ[Aib]EFVNYLLATGPSSGAPPPS-NH2), the pKi was 6.75.
The same measure for `CC[C@H](C)[C@H](NC(=O)[C@H](CO)NC(=O)[C@H](Cc1ccc(O)cc1)NC(=O)[C@H](CC(=O)O)NC(=O)[C@H](CO)NC(=O)[C@@H](NC(=O)[C@](C)(Cc1ccccc1)NC(=O)[C@@H](NC(=O)CNC(=O)[C@H](CCC(=O)O)NC(=O)C(C)(C)NC(=O)[C@@H](N)Cc1ccc(O)cc1)[C@@H](C)O)[C@@H](C)CC)C(=O)N[C@@](C)(CC(C)C)C(=O)N[C@@H](CC(C)C)C(=O)N[C@@H](CC(=O)O)C(=O)N[C@@H](CCCCN)C(=O)N[C@@H](CCCCNC(=O)COCCOCCNC(=O)COCCOCCNC(=O)CC[C@H](NC(=O)CCCCCCCCCCCCCCCCCCC(=O)O)C(=O)O)C(=O)N[C@@H](Cc1c[nH]cn1)C(=O)N[C@@H](CCC(N)=O)C(=O)NC(C)(C)C(=O)N[C@@H](CCC(=O)O)C(=O)N[C@@H](Cc1ccccc1)C(=O)N[C@H](C(=O)N[C@@H](CCC(=O)O)C(=O)N[C@@H](Cc1ccncc1)C(=O)N[C@@H](CC(C)C)C(=O)N[C@@H](CC(C)C)C(=O)N[C@@H](C)C(=O)N[C@H](C(=O)NCC(=O)N1CCC[C@H]1C(=O)N[C@@H](CO)C(=O)N[C@@H](CO)C(=O)NCC(=O)N[C@@H](C)C(=O)N1CCC[C@H]1C(=O)N1CCC[C@H]1C(=O)N1CCC[C@H]1C(=O)N[C@@H](CO)C(N)=O)[C@@H](C)O)C(C)C` [Example 61] (H-Y[Aib]EGT[αMeF]ISDYSI[αMeL]LDKK([AEEA-AEEA-γGlu-C20 diacid])HQ[Aib]EFVE[4Pal]LLATGPSSGAPPPS-NH2): 6.87.
The same measure for `CC[C@H](C)[C@H](NC(=O)[C@H](Cc1ccccc1)NC(=O)[C@@H](NC(=O)CNC(=O)[C@H](CCC(=O)O)NC(=O)C(C)(C)NC(=O)[C@@H](N)Cc1ccc(O)cc1)[C@@H](C)O)C(=O)N[C@@H](CO)C(=O)N[C@@H](CC(=O)O)C(=O)N[C@@H](Cc1ccc(O)cc1)C(=O)N[C@@H](CO)C(=O)N[C@H](C(=O)N[C@@](C)(CC(C)C)C(=O)N[C@@H](CC(C)C)C(=O)N[C@@H](CC(=O)O)C(=O)N[C@@H](CCCCN)C(=O)N[C@@H](CCCCNC(=O)COCCOCCNC(=O)COCCOCCNC(=O)CC[C@H](NC(=O)CCCCCCCCCCCCCCCCCCC(=O)O)C(=O)O)C(=O)N[C@@H](Cc1c[nH]cn1)C(=O)N[C@@H](CCC(N)=O)C(=O)NC(C)(C)C(=O)N[C@@H](CC(=O)O)C(=O)N[C@@H](Cc1ccccc1)C(=O)N[C@H](C(=O)N[C@@H](CCC(=O)O)C(=O)N[C@@H](Cc1c[nH]c2ccccc12)C(=O)N[C@@H](CC(C)C)C(=O)N[C@@H](CC(C)C)C(=O)N[C@@H](CCC(=O)O)C(=O)N[C@H](C(=O)NCC(=O)N1CCC[C@H]1C(=O)N[C@@H](CO)C(=O)N[C@@H](CO)C(=O)NCC(=O)N[C@@H](C)C(=O)N1CCC[C@H]1C(=O)N1CCC[C@H]1C(=O)N1CCC[C@H]1C(=O)N[C@@H](CO)C(N)=O)[C@@H](C)O)C(C)C)[C@@H](C)CC` [Example 71] (H-Y[Aib]EGTFISDYSI[αMeL]LDKK([AEEA-AEEA-γGlu-C20 diacid])HQ[Aib]DFVEWLLETGPSSGAPPPS-NH2): 6.46.
With `CC[C@H](C)[C@H](NC(=O)[C@H](CO)NC(=O)[C@H](Cc1ccc(O)cc1)NC(=O)[C@H](CC(=O)O)NC(=O)[C@H](CO)NC(=O)[C@@H](NC(=O)[C@](C)(Cc1ccccc1)NC(=O)[C@@H](NC(=O)CNC(=O)[C@H](CCC(=O)O)NC(=O)C(C)(C)NC(=O)[C@@H](N)Cc1ccc(O)cc1)[C@@H](C)O)[C@@H](C)CC)C(=O)N[C@@H](C)C(=O)N[C@@H](CC(C)C)C(=O)N[C@@H](CC(=O)O)C(=O)N[C@@H](CCCCN)C(=O)N[C@@H](CCCCNC(=O)COCCOCCNC(=O)COCCOCCNC(=O)CC[C@H](NC(=O)CCCCCCCCCCCCCCCCCCC(=O)O)C(=O)O)C(=O)N[C@@H](Cc1c[nH]cn1)C(=O)N[C@@H](CCC(N)=O)C(=O)NC(C)(C)C(=O)N[C@@H](CC(=O)O)C(=O)N[C@@H](Cc1ccccc1)C(=O)N[C@H](C(=O)N[C@@H](CCC(=O)O)C(=O)N[C@@H](Cc1ccncc1)C(=O)N[C@@H](CC(C)C)C(=O)N[C@@H](CC(C)C)C(=O)N[C@@H](CCC(=O)O)C(=O)N[C@@H](C)C(=O)NCC(=O)N1CCC[C@H]1C(=O)N[C@@H](CO)C(=O)N[C@@H](CO)C(=O)NCC(=O)N[C@@H](C)C(=O)N1CCC[C@H]1C(=O)N1CCC[C@H]1C(=O)N1CCC[C@H]1C(=O)N[C@@H](CO)C(N)=O)C(C)C` [Example 43] (H-Y[Aib]EGT[αMeF]ISDYSIALDKK([AEEA-AEEA-γGlu-C20 diacid])HQ[Aib]DFVE[4Pal]LLEAGPSSGAPPPS-NH2) the figure was 6.22; with `CC[C@H](C)[C@H](NC(=O)[C@H](Cc1ccccc1)NC(=O)[C@@H](NC(=O)CNC(=O)[C@H](CCC(=O)O)NC(=O)C(C)(C)NC(=O)[C@@H](N)Cc1ccc(O)cc1)[C@@H](C)O)C(=O)N[C@@H](CO)C(=O)N[C@@H](CC(=O)O)C(=O)N[C@@H](Cc1ccc(O)cc1)C(=O)N[C@@H](CO)C(=O)N[C@H](C(=O)N[C@@](C)(CC(C)C)C(=O)N[C@@H](CC(C)C)C(=O)N[C@@H](CC(=O)O)C(=O)N[C@@H](CCCCN)C(=O)N[C@@H](CCCCNC(=O)COCCOCCNC(=O)COCCOCCNC(=O)CC[C@H](NC(=O)CCCCCCCCCCCCCCCCC(=O)O)C(=O)O)C(=O)N[C@@H](Cc1c[nH]cn1)C(=O)N[C@@H](CCC(N)=O)C(=O)NC(C)(C)C(=O)N[C@@H](CC(=O)O)C(=O)N[C@@H](Cc1ccccc1)C(=O)N[C@H](C(=O)N[C@@H](CCC(=O)O)C(=O)N[C@@H](Cc1ccncc1)C(=O)N[C@@H](CC(C)C)C(=O)N[C@@H](CC(C)C)C(=O)N[C@@H](C)C(=O)NCC(=O)NCC(=O)N1CCC[C@H]1C(=O)N[C@@H](CO)C(=O)N[C@@H](CO)C(=O)NCC(=O)N[C@@H](C)C(=O)N1CCC[C@H]1C(=O)N1CCC[C@H]1C(=O)N1CCC[C@H]1C(=O)N[C@@H](CO)C(N)=O)C(C)C)[C@@H](C)CC` [Example 49], 6.22; with `CC[C@H](C)[C@H](NC(=O)[C@H](CC(C)C)NC(=O)[C@@H](NC(=O)CNC(=O)[C@H](CCC(=O)O)NC(=O)C(C)(C)NC(=O)[C@@H](N)Cc1ccc(O)cc1)[C@@H](C)O)C(=O)N[C@@H](CO)C(=O)N[C@@H](CC(=O)O)C(=O)N[C@@H](Cc1ccc(O)cc1)C(=O)N[C@@H](CO)C(=O)N[C@H](C(=O)N[C@@](C)(CC(C)C)C(=O)N[C@@H](CC(C)C)C(=O)N[C@@H](CC(=O)O)C(=O)N[C@@H](CCCCN)C(=O)N[C@@H](CCCCNC(=O)COCCOCCNC(=O)COCCOCCNC(=O)CC[C@H](NC(=O)CCCCCCCCCCCCCCCCCCC(=O)O)C(=O)O)C(=O)N[C@@H](Cc1c[nH]cn1)C(=O)N[C@@H](CCC(N)=O)C(=O)NC(C)(C)C(=O)N[C@@H](CCC(=O)O)C(=O)N[C@@H](Cc1ccccc1)C(=O)N[C@H](C(=O)N[C@@H](CCC(=O)O)C(=O)N[C@@H](Cc1ccc(O)cc1)C(=O)N[C@@H](CC(C)C)C(=O)N[C@@H](CC(C)C)C(=O)N[C@@H](CCC(=O)O)C(=O)N[C@H](C(=O)NCC(=O)N1CCC[C@H]1C(=O)N[C@@H](CO)C(=O)N[C@@H](CO)C(=O)NCC(=O)N[C@@H](C)C(=O)N1CCC[C@H]1C(=O)N1CCC[C@H]1C(=O)N1CCC[C@H]1C(=O)N[C@@H](CO)C(N)=O)[C@@H](C)O)C(C)C)[C@@H](C)CC` [Example 72] (H-Y[Aib]EGTLISDYSI[αMeL]LDKK([AEEA-AEEA-γGlu-C20 diacid])HQ[Aib]EFVEYLLETGPSSGAPPPS-NH2), 6.36.
